According to PubChem BioAssay (NCI):
Values joined by “and” are separate entries in the source; they are usually repeats but may differ in a detail not shown here. Identical values can stand only once.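 The compound was tested at five concentrations on cells cultured in 96-well plates, with a 48-hour exposure period. Abbreviation: GI50, concentration required for 50% inhibition of growth. TGI marks complete inhibition of growth.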

What was measured:
Assay in all cases: DTP human tumour cell line panel, 48 h
[1] = test system: SNB-78 CNS
[2] = test system: KM20L2 colon
[3] = test system: M19-MEL melanoma
[4] = test system: SK-MEL-28 melanoma
[5] = test system: HOP-18 NSCLC
[6] = test system: NCI-H226 lung
[7] = test system: SK-MEL-2 melanoma
[8] = test system: NCI/ADR-RES ovarian
[9] = test system: CCRF-CEM leukemia
[10] = test system: HS 578T breast
[11] = test system: DU-145 prostate
[12] = test system: MDA-N
[13] = test system: PC-3 prostate

Row | SMILES | TGI [1] [µM] | TGI [2] [µM] | TGI [3] [µM] | TGI [4] [µM] | TGI [5] [µM] | TGI [6] [µM] | TGI [7] [µM] | TGI [8] [µM] | TGI [9] [µM] | TGI [10] [µM] | TGI [11] [µM] | TGI [12] [µM] | TGI [13] [µM] | GI50 [6] [µM] | GI50 [9]
1 | CCCCN(C)/N=N/c1nc[nH]c1C(N)=O | > 100 | > 100 | > 100 | > 100 | > 100 | > 100 | > 100 | > 100 | > 100 |  |  |  |  |  | 
2 | N/C(=N\N=C\c1ncccc1O)NO | > 100 | > 100 | > 78.6 | > 100 | > 100 | 58.1 | > 100 | > 85.5 | > 47.6 |  |  |  |  |  | 
3 | COc1ccc(Oc2ccccc2N)cc1 | > 100 | > 100 | > 100 | 95.1 | > 100 | > 100 | > 100 |  | > 100 |  |  |  |  |  | 
4 | CCC(=O)OC1CCn2c1nc1c2C(=O)C(C)=C(NC(C)=O)C1=N (configuration not stated) | 6.05 | 3.38 | 0.365 | 3.5 | 3.26 | 4.63 | 3.43 |  |  |  |  |  |  |  | 
5 | Cc1c2ccncc2c(C)c2c1[nH]c1ccc(OCCN(C)C)cc12 | 3.2 | 1.18 | 2.17 | 2.01 | 2.76 | 0.976 | 1.87 | 0.348 | 1.3 |  |  |  |  |  | 
6 | [N-]=[N+]=NCC(O)Cn1cnc2c(NC(=O)c3ccccc3)ncnc21 (configuration not stated) | > 100 | > 100 | > 100 | > 100 | > 100 | > 100 | > 100 |  | > 100 |  |  |  |  |  | 
7 | O=c1[nH]c(=O)n(C2OC(CO)C(O)C2O)cc1OCCCc1ccccc1 (configuration not stated) |  |  |  | > 100 |  | > 100 | > 100 | > 100 | > 100 | > 100 | > 100 | > 100 | > 100 |  | 
8 | Oc1ccc(-c2nc3ccccc3s2)cc1 |  |  |  | > 100 |  | > 100 | 67.3 | > 100 | > 100 | 78.8 | > 100 | > 100 | > 100 |  | 
9 | COC(=O)Nc1nc2ccc(NC(=O)c3ccc(I)cc3)cc2[nH]1 |  |  |  | > 100 |  | > 100 | > 100 | > 100 | > 100 | > 100 | > 100 | > 100 | > 100 |  | 
10 | CC(CNC(N)=O)NC(N)=O (configuration not stated) |  |  |  | > 100 |  | > 100 | > 100 | > 100 | > 100 | > 100 | > 100 | > 100 | > 100 |  | 
11 | O=C(Nc1nn[nH]n1)c1nc(-c2ccccc2)cc(=O)[nH]1 | > 100 | > 100 | > 100 | > 100 |  | > 100 | > 100 | > 100 | > 100 | > 100 | > 100 | > 100 | > 100 |  | 
12 | CCOc1cc2c(cc1O)C(O)C[C@@H]1[C@@H]2CC[C@]2(C)[C@@H](O)CC[C@@H]12 (some centres not stated) |  |  |  | > 100 |  | > 100 | > 100 | 4.04 | > 100 | > 100 | > 74 | 0.326 | > 100 |  | 
13 | CC1CCC2(OC1)OC1C(O)C3C4CCC5CC(OC6OC(CO)C(OC7OC(CO)C(O)C(OC8OCC(O)C(O)C8O)C7OC7OC(CO)C(O)C(OC8OC(CO)C(O)C(O)C8O)C7O)C(O)C6O)C(O)CC5(C)C4CCC3(C)C1C2C (configuration not stated) |  |  |  | > 100 |  | 3.33 | 17.8 | 13.6 | 10.5 | 4.5 | 4.63 | 7.94 | 10.3 |  | 
14 | O=C1NC(Cc2ccc(O)cc2)C(=O)NC1Cc1ccc(O)cc1 (configuration not stated) |  |  |  | > 100 |  | > 100 | > 100 | > 100 | > 100 | > 100 | > 100 | > 100 | > 100 |  | 
15 | CC1(C)O[C@@H](C[C@]2(C#N)C[C@H](CCl)OC(C)(C)O2)C[C@@H](C#N)O1 | > 100 | > 100 | > 100 | > 100 | > 100 | > 100 | > 100 |  | > 100 |  |  |  |  |  | 
16 | OC(NN=C1CCCC1)(C(F)(F)Cl)C(F)(F)Cl |  |  |  | > 10 |  | > 10 | > 10 | > 10 | > 10 | > 10 | > 10 | > 10 | > 10 |  | 
17 | O=C1NC(N2CCOCC2)=N/C1=C\c1ccc(O)cc1 |  |  |  | > 100 |  | > 100 | > 100 | > 100 | > 100 | > 100 | > 100 | > 100 | > 100 |  | 
18 | O=C1C2C=CC(n3[nH]c(=O)n(Cc4ccccc4)c3=O)CC2C(=O)N1c1ccc(Br)cc1 (configuration not stated) | > 100 | > 100 | > 100 | > 100 | > 100 | > 100 | > 100 |  | > 100 |  |  |  |  |  | 
19 | CCOC(=O)C1=C(O)c2ccc(C)cc2C(=O)C1=O | > 100 | > 100 | 32.3 | > 100 | > 100 | > 100 | > 100 |  | > 100 |  |  |  |  |  | 
20 | CC(=O)C(C)(C)CCC(C)(C)C(C)=O |  |  |  | > 100 |  | > 100 | > 100 | > 100 | > 100 | > 100 | > 100 | > 100 | > 100 |  | 
21 | CC(C)=CCC[C@@H](C)C1=C(O)C(Nc2ccccc2I)=C(C)C(=O)C1=O |  |  |  | > 75 |  | 18.4 | 29.4 | > 17.6 | > 20.9 | 47.4 | 69.2 | > 75 | > 51.8 |  | 
22 | CC(=O)OC[C@H]1On2nnnc2[C@H](OC(C)=O)[C@@H](OC(C)=O)[C@@H]1OC(C)=O |  |  |  | > 100 |  | > 100 | > 100 | > 100 | > 100 | > 100 | > 100 | > 100 | > 100 |  | 
23 | C=C1C(C)C2C(Cc3ccccc3)NC(=O)C23OC(=O)/C=C\CC(=O)CCC(C)C/C=C/C3C1O (configuration not stated) | 2.08 | 15.8 | 12.5 | 3.92 | 1.94 | 10.3 | 8.35 | 33.4 |  |  |  |  |  | 0.635 | 0.135 µM and 0.216 µM
24 | COC1=CC(=O)N(C)C(O)C1(C#N)OC1OC(CO)C(O)C(O)C1O (configuration not stated) |  |  |  | > 100 |  | > 100 | > 100 | > 100 | > 10 | > 100 | > 100 | > 100 | > 100 |  | 
25 | CCCCCCCCOc1ccc(/C=C/C2=[N+](CCO)CCO2)cc1 |  |  |  | 9.12 |  | 12.3 | 7.26 | 29.4 | 6.43 | 17.2 | 16.4 | 12.3 | 10.3 |  | 
